Source: patent US9394299B2, “Rilyazine derivatives and compositions for the treatment of cancer” (Warner Babcock Institute for Green Chemistry, LLC, priority 2013, dated 2016)
“Also recorded” adds a separate entry of the source.

Columns and labels:
MDA-MB-231/ATCC (Breast) = experiment: NCI single point 10 μM, MDA-MB-231/ATCC; format: cell-based, human; conditions: 10^−5 M
Protocol: (§1) The screening is a two-stage process, beginning with the evaluation of all compounds against 60 cell lines at a single dose of 10^−5 M.
(§2) The human tumor cell lines of the cancer screening panel are grown in RPMI 1640 medium containing 5% fetal bovine serum and 2 mM L-glutamine. Cells are inoculated into 96 well microtiter plates in 100 μL at plating densities ranging from 5,000 to 40,000 cells/well depending on the doubling time of individual cell lines. After cell inoculation, the microtiter plates are incubated at 37° C., 5% CO2, 95% air and 100% relative humidity for 24 h prior to addition of experimental drugs. […]
(§3) Following drug addition, the plates are incubated for an additional 48 h at 37° C., 5% CO2, 95% air, and 100% relative humidity. […] Bound stain is subsequently solubilized with 10 mM trizma base, and the absorbance is read on an automated plate reader at a wavelength of 515 nm. […]
(§4) For the 1-dose 60 cell testing, the Growth Percent is calculated for each cell line/drug combination from the absorbance measurement for the no-drug control (C), the absorbance at time zero (Tz) and the absorbance measurement after incubation of the cells in the presence of drug (Ti): Growth Percent=[(Ti−Tz)/(C−Tz)]×100 for cell line/drug combinations for which Ti≧Tz. […]

SN12C (Renal Cancer) = experiment: NCI single point 10 μM, SN12C; format: cell-based, human; conditions: 10^−5 M
Protocol: as §1, §2, §3, §4

MALME-3M (Melanoma) = experiment: NCI single point 10 μM, MALME-3M; format: cell-based, human; conditions: 10^−5 M
Protocol: as §1, §2, §3, §4

[1] = test system: 60 cell lines (human tumor cell lines of the cancer screening panel); experiment: NCI 60 cell line screening, five point dosing (SRB); format: cell-based
Protocol: (§5) RL-4 was evaluated against the 60 cell panel at five concentration levels, 10^−8 M, 10^−7 M, 10^−6 M, 10^−5 M and 10^−4 M.
The human tumor cell lines of the cancer screening panel are grown in RPMI 1640 medium containing 5% fetal bovine serum and 2 mM L-glutamine. Cells are inoculated into 96 well microtiter plates in 100 μL at plating densities ranging from 5,000 to 40,000 cells/well depending on the doubling time of individual cell lines. After cell inoculation, the microtiter plates are incubated at 37° C., 5% CO2, 95% air and 100% relative humidity for 24 h prior to addition of experimental drugs.
After 24 h, two plates of each cell line are fixed in situ with TCA, to represent a measurement of the cell population for each cell line at the time of drug addition Time Zero (Tz). Experimental drugs are solubilized in dimethyl sulfoxide:glycerol 9:1 at 400-fold the desired final maximum test concentration and stored frozen at −70° C. prior to use. At the time of drug addition, an aliquot of frozen concentrate is thawed and diluted to twice the desired final maximum test concentration with complete medium containing 50 μg/ml gentamicin. Additional four, 10-fold or ½ log serial dilutions are made to provide a total of five drug concentrations plus control. Aliquots of 100 μl of these different drug dilutions are added to the appropriate microtiter wells already containing 100 μl of medium, resulting in the required final drug concentrations.
Positive control is prepared by adding the known anti-tumor agent adriamycin, NSC 123127, prepared and stored the same as the compounds for testing.
Following drug addition, the plates are incubated for an additional 48 h at 37° C., 5% CO2, 95% air, and 100% relative humidity. For adherent cells, the assay is terminated by the addition of cold TCA. Cells are fixed in situ by the gentle addition of 50 μl of cold 50% (w/v) TCA (final concentration, 10% TCA) and incubated for 60 minutes at 4° C. The supernatant is discarded, and the plates are washed five times with tap water and air dried. Sulforhodamine B (SRB) solution (100 μl) at 0.4% (w/v) in 1% acetic acid is added to each well, and plates are incubated for 10 minutes at room temperature. After staining, unbound dye is removed by washing five times with 1% acetic acid and the plates are air dried. Bound stain is subsequently solubilized with 10 mM trizma base, and the absorbance is read on an automated plate reader at a wavelength of 515 nm. For suspension cells, the methodology is the same except that the assay is terminated by fixing settled cells at the bottom of the wells by gently adding 50 μl of 80% TCA (final concentration, 16% TCA).
The percentage growth is calculated at each of the five drug concentrations levels using the seven absorbance measurements, namely absorbance at time zero (Tz), absorbance of control after incubation (C), and absorbance of test sample after incubation in the presence of drug at each of the five concentration levels (Ti). The Growth Percent is calculated as it was for the 1 dose assay: Growth Percent=[(Ti−Tz)/(C−Tz)]×100 for cell line/drug combinations for which Ti≧Tz. Growth Percent=[(Ti−Tz)/Tz]×100 for cell line/drug combinations for which Ti<Tz.
For the 5-dose 60 cell testing, three dose-response parameters are determined for each experimental agent. These parameters are Growth Inhibition of 50% (GI50), drug concentration resulting in Total Growth Inhibition (TGI), and concentration resulting in 50% lethality (LC50).
Growth inhibition of 50% (GI50) is determined as the drug concentration at which Growth Percent=[(Ti−Tz)/(C−Tz)]×100=50. GI50 is the drug concentration resulting in a 50% reduction in the net protein increase compared to the increase in protein in control cells (as measured by SRB staining) during the drug incubation.
The drug concentration resulting in total growth inhibition (TGI) is determined as the drug concentration at which Ti=Tz, which corresponds to a Growth Percent of zero. […]

[2] = test system: NCI-H322M (non-small cell lung cancer); experiment: NCI five point dosing, NCI-H322M; format: cell-based, human
Protocol: as §5, §2, §3
The percentage growth is calculated at each of the five drug concentrations levels using the seven absorbance measurements, namely absorbance at time zero (Tz), absorbance of control after incubation (C), and absorbance of test sample after incubation in the presence of drug at each of the five concentration levels (Ti). The Growth Percent is calculated as it was for the 1 dose assay: Growth Percent=[(Ti−Tz)/(C−Tz)]×100 for cell line/drug combinations for which Ti≧Tz. […]

[3] = five point dosing, 60 cell lines

## S=c1c2ncccc2c(-c2ccccn2)nn1C1CCCCC1 [RL-4, 7-cyclohexyl-5-(pyridin-2-yl)pyrido[2,3-d]pyridazine-8(7H)-thione]
MDA-MB-231/ATCC (Breast)
  Growth Percent: 129.23%
SN12C (Renal Cancer)
  Growth Percent: 95.87%
MALME-3M (Melanoma)
  Growth Percent: 98.97%
[1]; Homo sapiens, five point dosing 10^−8 to 10^−4 M, mean of 60 cell lines, read-out: Mean GI50 for all 60 cell lines
  GI50: 20 µM
[1]; Homo sapiens, five point dosing up to 10^−4 M, read-out: LC50 for all other cell lines (except COLO 205)
  CC50: > 100 µM
[1]; concentrations up to 10^−4 M
  toxicity (in words): not toxic at the concentrations tested; also recorded: not observed
[1]; five point dosing 10^−8 to 10^−4 M, 60 cell lines
  growth inhibition / anti-proliferative efficacy (in words): significant growth inhibition across all 60 cell lines; also recorded: anti-proliferative efficacy across a range of 60 cell lines
[1]; [3]
  log10GI50 Delta: 1.45
  log10GI50 Mean: −5.0
  log10GI50 Range: 2.45
[1]; within dosage range tested, of 60 cell lines
  number of cell lines in which total growth inhibition (growth percent=0, TGI) was achieved: eight
[2]; 10^−4 M dose
  Growth Percent: 60%
[2]; Homo sapiens, five point dosing
  GI50: > 100 µM
